In patent publication US11559504B2, “Ceramide nanoliposomes, compositions and methods of using for immunotherapy” (THE PENN STATE RESEARCH FOUNDATION, priority 2017, dated 2023):

Legend:
[1] = tested on: G-BMMs and M-BMMs; assay: ROS in bone marrow-derived macrophages in vitro, ROS-Glo H2O2 luminescent assay; assay type: cell-based, C57BL/6 mice; conditions: ceramides of carbon-chain lengths 6 to 22, overnight incubation
Experimental: Size-matched TBMs were randomly assigned to one of three groups: vehicle, LipC6, or no injection. Two weeks after injection, splenic leukocytes and TILs were prepared from the spleen and the perfused tumors. The cells were incubated for 45 mins at 37° C., then washed three times with media, with the remaining adherent cells being >90% CD11b positive (macrophages). Intracellular ROS were measured with Glo™ H2O2 assay. Briefly, H2O2 substrate was added to each well followed by addition of ROS-Glo™ detection solution. After incubation for 20 minutes at RT, relative luminescence was measured to assess ROS level in TAMs (A) and splenic macrophages (B). Similarly, bone marrow-derived macrophages (BMMs) were prepared in vitro by stimulating bone marrow cells from wild type C57BL/6 mice with GMCSF (G-BMMs) and MCSF (M-BMMs) for 6 days.
G-BMMs (A) and M-BMMs (B) were prepared in vitro by stimulating bone marrow cells from wild type C57BL/6 mice with GMCSF and MCSF for 6 days. After incubation with the ceramides of different carbon-chain lengths varying from 6 to 22 overnight, the relative ROS level in G-BMMs (C) and M-BMMs (D) was measured with a luminescence assay in accordance with the manufacturer's instruction. n=3; error bars represent±SD. * p<0.05.
Mice. […] Small tumors can be detected by MRI two months after hepatocyte inoculation. […]

[2] = tested on: GM-BMMs; assay: M1 cytokine mRNA in GM-BMMs with LipC6, NAC or both, RT-PCR; assay type: cell-based, C57BL/6 mice; conditions: 50 μM NAC, 24 hours
Experimental: GM-BMMs were prepared in vitro by stimulating bone marrow derived monocytes from wild type C57BL/6 mice with 50 ng/mL GMCSF for 6 days. GM-BMMs were incubated for 24 hours with 25 μM vehicle, 25 μM LipC6, 50 μM NAC or LipC6 plus NAC. Total RNA was extracted and subjected to RT-PCR to quantitate M1 cytokines including iNOS (B), IL-12 (C), IFN-γ (D) and TNF-α (E). n=3, *=p<0.05 and **=p<0.001 using Student's t-test.
Total RNA extraction and real-time PCR. Total RNAs were extracted using Trizol reagent (Invitrogen, Carlsbad, Calif.) according to the manufacturer's instructions. 2 μg of total RNAs were used for cDNA synthesis with High Capacity cDNA Reverse Transcription Kits (Applied Biosystems, CA). Each PCR was performed in a 20 μl reaction mixture containing SYBR Green I (Roche, Basel, Switzerland). Real-time PCR was performed with CFX96 Real-Time PCR Detection System (Bio-Rad, CA). Reactions were run in triplicate in three independent experiments. Expression data were normalized to the geometric mean of housekeeping gene 18S rRNA to control the variability in expression levels and were analyzed using the 2^ΔΔCT method.
To further study if ROS signaling is required for LipC6-mediated modulation of macrophages, we compared the function of LipC6 and the ROS specific inhibitor N-acetyl-L-cysteine (NAC) in modulating M1 cytokine production in GMCSF-induced macrophages.

Row | SMILES | suppressive effect on ROS production in BMMs [1] | M1 cytokine production profile compared with LipC6 [2]
1 | CCCCCCCCCCCCC/C=C/[C@@H](O)[C@H](CO)NC(=O)CCCCC [C6-ceramide, N-hexanoyl-D-erythro-sphinogosine] | suppressive effect | 
2 | CCCCCCCCCCCCC/C=C/[C@@H](O)[C@H](CO)NC(=O)CCCCCCC [C8-ceramide] | suppressive effect | 
3 | CC(=O)N[C@@H](CS)C(=O)O [NAC, N-acetyl-L-cysteine] |  | similar
